From US10377753B2, “Substituted 4-azaindoles and their use as GluN2B receptor modulators” (Janssen Pharmaceutica NV, priority 2015, dated 2019) come the findings set out here.

The target of the experiment is cloned human NR1/NR2B ion channels (Homo sapiens (Human), UniProt Q05586+Q13224). Kind of experiment: HNR2BC: effects of test articles on cloned human NR1/NR2B ion channels expressed in mammalian cells (FLIPR calcium flux). Conditions: Table 5. Type of experiment: cell-based. In a few lines: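 Compounds were added to dye-loaded cells for 5 min with fluorescence monitored for agonism, followed by co-agonists (glutamate ~EC80, glycine 10 μM saturating) for 5 min. Cells stably expressed inducible human NR1/NR2B, and the buffer was pH 7.4. The FLIPR Ca2+ flux signal was normalized against control wells.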
(Calcium flux is commonly read through the fluorescence of an indicator in the cells.)

Setting [1] is: cloned human NR1/NR2B ion channels.

Structures are written as SMILES. Where a name gives a salt, the structure may show the parent alone.

Chain of cloned human NR1/NR2B ion channels (Q13224 27-1484, other chains not shown): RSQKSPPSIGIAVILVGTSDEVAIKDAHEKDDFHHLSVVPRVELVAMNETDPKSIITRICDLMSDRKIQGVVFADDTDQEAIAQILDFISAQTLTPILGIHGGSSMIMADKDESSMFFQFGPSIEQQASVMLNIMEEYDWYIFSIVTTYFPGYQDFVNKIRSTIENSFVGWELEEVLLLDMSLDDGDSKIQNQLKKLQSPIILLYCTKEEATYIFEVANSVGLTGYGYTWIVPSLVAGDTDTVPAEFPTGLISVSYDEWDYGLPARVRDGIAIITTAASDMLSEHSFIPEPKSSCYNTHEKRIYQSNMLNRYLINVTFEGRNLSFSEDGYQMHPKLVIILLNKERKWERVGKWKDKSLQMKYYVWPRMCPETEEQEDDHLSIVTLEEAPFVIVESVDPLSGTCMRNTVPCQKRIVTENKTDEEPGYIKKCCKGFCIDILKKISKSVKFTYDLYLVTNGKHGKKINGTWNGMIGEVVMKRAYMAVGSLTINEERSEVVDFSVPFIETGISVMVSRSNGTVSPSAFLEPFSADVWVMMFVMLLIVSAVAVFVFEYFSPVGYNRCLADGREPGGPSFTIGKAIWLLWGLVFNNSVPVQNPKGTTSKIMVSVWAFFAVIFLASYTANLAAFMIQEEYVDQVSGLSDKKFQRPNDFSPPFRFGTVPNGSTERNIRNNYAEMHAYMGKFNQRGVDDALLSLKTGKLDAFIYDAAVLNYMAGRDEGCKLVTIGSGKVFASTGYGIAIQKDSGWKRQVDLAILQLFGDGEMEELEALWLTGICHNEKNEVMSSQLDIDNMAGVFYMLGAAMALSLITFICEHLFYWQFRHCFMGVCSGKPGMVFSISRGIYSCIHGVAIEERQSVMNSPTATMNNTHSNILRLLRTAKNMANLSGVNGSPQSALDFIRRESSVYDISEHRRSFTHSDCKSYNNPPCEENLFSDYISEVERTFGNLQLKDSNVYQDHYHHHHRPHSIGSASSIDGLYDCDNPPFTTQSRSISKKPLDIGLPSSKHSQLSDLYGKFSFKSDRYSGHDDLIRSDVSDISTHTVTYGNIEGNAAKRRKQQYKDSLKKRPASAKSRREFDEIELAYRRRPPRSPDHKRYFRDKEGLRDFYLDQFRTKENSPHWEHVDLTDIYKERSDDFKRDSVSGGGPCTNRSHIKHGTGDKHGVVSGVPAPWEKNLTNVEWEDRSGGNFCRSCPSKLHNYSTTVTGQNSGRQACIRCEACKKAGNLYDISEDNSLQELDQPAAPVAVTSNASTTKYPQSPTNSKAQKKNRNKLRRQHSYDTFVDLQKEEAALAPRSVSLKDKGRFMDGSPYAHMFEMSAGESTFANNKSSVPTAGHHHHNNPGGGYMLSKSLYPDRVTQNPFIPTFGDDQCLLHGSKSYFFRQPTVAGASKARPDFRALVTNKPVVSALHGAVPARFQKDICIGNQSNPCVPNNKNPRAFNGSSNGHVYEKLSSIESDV

Turning to `Fc1ccc(-c2cnc3ccn(Cc4cccnn4)c3c2)cc1F` [Example 131, 6-(3,4-Difluorophenyl)-1-(pyridazin-3-ylmethyl)pyrrolo[3,2-b]pyridine], the IC50 – broadly, the concentration needed to halve the response being measured – (cloned human NR1/NR2B) was 126 nM. With `Cc1csc(-c2cnc3c(C)cn(CC(=O)N4CCC4)c3c2)c1` [Example 574, 1-(Azetidin-1-yl)-2-[3-methyl-6-(4-methyl-2-thienyl)pyrrolo[3,2-b]pyridin-1-yl]ethanone], the IC50 under setting [1] was 79.4 nM.

With `CN(C)C(=O)Cn1cc(Cl)c2ncc(-c3cccc(F)c3)cc21` [Example 531, 2-[3-Chloro-6-(3-fluorophenyl)pyrrolo[3,2-b]pyridin-1-yl]-N,N-dimethyl-acetamide], under setting [1], the IC50 was 50.1 nM.

Regarding `O=C(Cn1cc(Cl)c2ncc(-c3cccc(C(F)F)c3)cc21)N1CCC1` [Example 529, 1-(Azetidin-1-yl)-2-[3-chloro-6-[3-(difluoromethyl)phenyl]pyrrolo[3,2-b]pyridin-1-yl]ethanone], the IC50 under setting [1] is 79.4 nM. For `Cc1cc(F)ccc1-c1cnc2ccn(CC(=O)NC3CC3)c2c1` [Example 161, N-Cyclopropyl-2-[6-(4-fluoro-2-methyl-phenyl)pyrrolo[3,2-b]pyridin-1-yl]acetamide trifluoroacetate salt], the IC50 (cloned human NR1/NR2B) was 200 nM. As to `COCCn1ccc2ncc(-c3ccc(F)c(C)c3)cc21` [Example 291, 6-(4-Fluoro-3-methyl-phenyl)-1-(2-methoxyethyl)pyrrolo[3,2-b]pyridine trifluoroacetate salt], the IC50 (cloned human NR1/NR2B) was 79.4 nM. Regarding `Cc1cn(CC(=O)N2CC(F)(F)C2)c2cc(-c3cccc(C(F)(F)F)c3)cnc12` [Example 569, 1-(3,3-Difluoroazetidin-1-yl)-2-[3-methyl-6-[3-(trifluoromethyl)phenyl]pyrrolo[3,2-b]pyridin-1-yl]ethanone], under setting [1], the IC50 is 398 nM.

Consider `Cc1cc(-c2cnc3ccn(CC(=O)N4CC(O)C4)c3c2)ccc1F` [Example 273, 2-[6-(4-Fluoro-3-methyl-phenyl)pyrrolo[3,2-b]pyridin-1-yl]-1-(3-hydroxyazetidine-1-yl)ethanone], for which the IC50 (cloned human NR1/NR2B) is 1000 nM. On to `Cc1cc(-c2cnc3ccn(CC(=O)N4CC[C@@H](F)C4)c3c2)ccc1F` [Example 201, 2-[6-(4-Fluoro-3-methyl-phenyl)pyrrolo[3,2-b]pyridin-1-yl]-1-[(3R)-3-fluoropyrrolidin-1-yl]ethanone trifluoroacetate salt], for which the concentration for half-maximal inhibition (IC50) (cloned human NR1/NR2B) was 3980 nM. As for `O=C(Cn1ccc2ncc(-c3cccc(Cl)c3F)cc21)N1CCC1` [Example 453, 1-(Azetidin-1-yl)-2-[6-(3-chloro-2-fluoro-phenyl)pyrrolo[3,2-b]pyridin-1-yl]ethanone], the IC50 under setting [1] is 25.1 nM.

Turning to `CN(C)C(=O)Cn1cc(F)c2ncc(-c3cc(Cl)cs3)cc21` [Example 396, 2-[6-(4-Chloro-2-thienyl)-3-fluoro-pyrrolo[3,2-b]pyridin-1-yl]-N,N-dimethyl-acetamide], the IC50 under setting [1] is 501 nM.

As for `O=C(Cn1ccc2ncc(-c3ccc(F)c(F)c3)cc21)N1CCC1` [Example 103, 1-(Azetidin-1-yl)-2-[6-(3,4-difluorophenyl)pyrrolo[3,2-b]pyridin-1-yl]ethanone], under “cloned human NR1/NR2B”, the IC50 is 251 nM. On to `O=C(Cn1ccc2ncc(-c3ccccc3)cc21)N1CC(F)C1` [Example 270, 1-(3-Fluoroazetidin-1-yl)-2-(6-phenylpyrrolo[3,2-b]pyridin-1-yl)ethanone], for which the IC50 (cloned human NR1/NR2B) is 39.8 nM.

Take `O=C(Cn1ccc2ncc(-c3cc(Cl)cs3)cc21)N1CCCC1` [Example 288, 2-[6-(4-Chloro-2-thienyl)pyrrolo[3,2-b]pyridin-1-yl]-1-pyrrolidin-1-yl-ethanone]: the IC50 (cloned human NR1/NR2B) is 20 nM. `O=C(Cn1cc(F)c2ncc(-c3cc(F)c(F)c(F)c3)cc21)N1CCCC1` [Example 315, 2-[3-Fluoro-6-(3,4,5-trifluorophenyl)pyrrolo[3,2-b]pyridin-1-yl]-1-pyrrolidin-1-yl-ethanone]: under “cloned human NR1/NR2B”, the IC50 was 79.4 nM.

`Cc1cccc(-c2cnc3c(C)cn(CC(=O)N4CC(F)C4)c3c2)c1` [Example 550, 1-(3-Fluoroazetidin-1-yl)-2-[3-methyl-6-(m-tolyl)pyrrolo[3,2-b]pyridin-1-yl]ethanone]: the IC50 under setting [1] was 126 nM. As for `Cc1cn(CC(=O)N2CCOCC2)c2cc(-c3ccc(F)cc3)cnc12` [Example 28, 2-[6-(4-Fluorophenyl)-3-methyl-pyrrolo[3,2-b]pyridin-1-yl]-1-morpholino-ethanone], the IC50 (cloned human NR1/NR2B) was 200 nM. On the same count and under the same terms, then `O=C(Cn1ccc2ncc(-c3ccccc3)cc21)N1CCCC1` [Example 78, 2-(6-Phenylpyrrolo[3,2-b]pyridin-1-yl)-1-pyrrolidin-1-yl-ethanone], with 1580 nM; and `CSCn1ccc2ncc(-c3ccc(F)c(C)c3)cc21` [Example 330, 6-(4-Fluoro-3-methyl-phenyl)-1-(methylsulfanylmethyl)pyrrolo[3,2-b]pyridine], with 63.1 nM; and `CC(C)C(=O)Cn1ccc2ncc(-c3cc(F)cc(F)c3)cc21` [Example 364, 1-[6-(3,5-Difluorophenyl)pyrrolo[3,2-b]pyridin-1-yl]-3-methyl-butan-2-one], with 20 nM.

For the compound `O=C(Cn1cc(F)c2ncc(-c3ccccc3)cc21)N1CC(F)C1` [Example 482, 1-(3-Fluoroazetidin-1-yl)-2-(3-fluoro-6-phenyl-pyrrolo[3,2-b]pyridin-1-yl)ethanone], the IC50 under setting [1] is 15.8 nM. Take `O=C(Cn1cc(F)c2ncc(-c3cccc(C(F)F)c3)cc21)C1CC1` [Example 321, 1-Cyclopropyl-2-[6-[3-(difluoromethyl)phenyl]-3-fluoro-pyrrolo[3,2-b]pyridin-1-yl]ethanone]: for the setting “cloned human NR1/NR2B”, the 50% inhibitory concentration (IC50) was 20 nM. Consider `Cc1cn(CC(=O)N2CCC2)c2cc(-c3ccccc3F)cnc12` [Example 592, 1-(Azetidin-1-yl)-2-[6-(2-fluorophenyl)-3-methyl-pyrrolo[3,2-b]pyridin-1-yl]ethanone], for which, under setting [1], the IC50 was 126 nM.

On to `Cc1cccc(-c2cnc3ccn(CC(=O)N4CCOCC4)c3c2)c1` [Example 89, 1-Morpholino-2-[6-(m-tolyl)pyrrolo[3,2-b]pyridin-1-yl]ethanone], for which, for the setting “cloned human NR1/NR2B”, the IC50 is 200 nM. Same read-out and setting: the same measure for `O=C(Cn1ccc2ncc(-c3ccc(F)cc3F)cc21)N1CCC1` [Example 133, 1-(Azetidin-1-yl)-2-[6-(2,4-difluorophenyl)pyrrolo[3,2-b]pyridin-1-yl]ethanone]: 79.4 nM. Turning to `CCN(C)C(=O)Cn1ccc2ncc(-c3cccc(C(F)(F)F)c3)cc21` [Example 470, N-Ethyl-N-methyl-2-[6-[3-(trifluoromethyl)phenyl]pyrrolo[3,2-b]pyridin-1-yl]acetamide], the concentration for half-maximal inhibition (IC50) under setting [1] was 200 nM. Consider `Cc1csc(-c2cnc3ccn(CC(=O)N4CCC4)c3c2)c1` [Example 359, 1-(Azetidin-1-yl)-2-[6-(4-methyl-2-thienyl)pyrrolo[3,2-b]pyridin-1-yl]ethanone trifluoroacetate salt], for which, under “cloned human NR1/NR2B”, the concentration for half-maximal inhibition (IC50) is 31.6 nM. Still for that read-out and setting: then `O=C(Cn1ccc2ncc(-c3cccc(C(F)(F)F)c3)cc21)N1CC(F)(F)C1` [Example 260, 1-(3,3-Difluoroazetidin-1-yl)-2-[6-[3-(trifluoromethyl)phenyl]pyrrolo[3,2-b]pyridin-1-yl]ethanone trifluoroacetate salt], with 39.8 nM.

On to `O=C(Cn1ccc2ncc(-c3ccc(F)c(Cl)c3)cc21)N1CC(F)C1` [Example 467, 2-[6-(3-Chloro-4-fluoro-phenyl)pyrrolo[3,2-b]pyridin-1-yl]-1-(3-fluoroazetidin-1-yl)ethanone], for which the IC50 under setting [1] is 63.1 nM.

`O=C(Cn1ccc2ncc(-c3cc(F)c(F)c(F)c3)cc21)NC1CC1` [Example 248, N-Cyclopropyl-2-[6-(3,4,5-trifluorophenyl)pyrrolo[3,2-b]pyridin-1-yl]acetamide]: the IC50 (cloned human NR1/NR2B) is 63.1 nM. As for `O=C(Cn1cc(F)c2ncc(-c3ccccc3F)cc21)N1CCC1` [Example 471, 1-(Azetidin-1-yl)-2-[3-fluoro-6-(2-fluorophenyl)pyrrolo[3,2-b]pyridin-1-yl]ethanone], the IC50 under setting [1] was 100 nM. For the compound `Cc1ccccc1-c1cnc2ccn(CC(=O)N3CCC3)c2c1` [Example 162, 1-(Azetidin-1-yl)-2-[6-(o-tolyl)pyrrolo[3,2-b]pyridin-1-yl]ethanone trifluoroacetate salt], the IC50 (cloned human NR1/NR2B) is 100 nM. Take `CCc1cccc(-c2cnc3ccn(CC(=O)NC4CC4)c3c2)c1` [Example 366, N-Cyclopropyl-2-[6-(3-ethylphenyl)pyrrolo[3,2-b]pyridin-1-yl]acetamide]: the IC50 (cloned human NR1/NR2B) was 31.6 nM. Turning to `O=C(Cn1cc(Cl)c2ncc(-c3cccs3)cc21)N1CCC1` [Example 409, 1-(Azetidin-1-yl)-2-[3-chloro-6-(2-thienyl)pyrrolo[3,2-b]pyridin-1-yl]ethanone], under setting [1], the IC50 is 200 nM. In the case of `O=C(Cn1ccc2ncc(-c3ccc(Cl)c(Cl)c3)cc21)NC1CC1` [Example 156, N-Cyclopropyl-2-[6-(3,4-dichlorophenyl)pyrrolo[3,2-b]pyridin-1-yl]acetamide trifluoroacetate salt], the IC50 (cloned human NR1/NR2B) was 200 nM. As to `Cc1cn(CC(=O)N2CC(F)(F)C2)c2cc(-c3cccc(C(F)(F)F)c3F)cnc12` [Example 595, 1-(3,3-Difluoroazetidin-1-yl)-2-[6-[2-fluoro-3-(trifluoromethyl)phenyl]-3-methyl-pyrrolo[3,2-b]pyridin-1-yl]ethanone], the concentration for half-maximal inhibition (IC50) under setting [1] was 251 nM. As for `CC1(C)CN(C(=O)Cn2ccc3ncc(-c4ccc(F)cc4)cc32)C1` [Example 215, 1-(3,3-Dimethylazetidin-1-yl)-2-[6-(4-fluorophenyl)pyrrolo[3,2-b]pyridin-1-yl]ethanone], the IC50 (cloned human NR1/NR2B) was 158 nM. On to `CC(C)C(=O)Cn1cc(F)c2ncc(-c3cccc(C(F)(F)F)c3)cc21` [Example 328, 1-[3-Fluoro-6-[3-(trifluoromethyl)phenyl]pyrrolo[3,2-b]pyridin-1-yl]-3-methyl-butan-2-one], for which the IC50 (cloned human NR1/NR2B) was 63.1 nM. Turning to `CCc1cccc(-c2cnc3ccn(CC(=O)C(C)(C)C)c3c2)c1` [Example 145, 1-[6-(3-Ethylphenyl)pyrrolo[3,2-b]pyridin-1-yl]-3,3-dimethyl-butan-2-one], the IC50 (cloned human NR1/NR2B) is 501 nM.
